Assays:
HeLa cells [1] = test: Raman spectroscopy of fixed HeLa cells; type: cell-based, Human; settings: cells stained and fixed as in Example 1
Method: Raman spectroscopy maps were collected for living HeLa cells, HeLa cells that were fixed with paraformaldehyde (PFA), HeLa cells that were fixed with methanol (MeOH), and HeLa cells that were stained and fixed with Yb^3+[Zn(II)MCpyzHA] using the example method disclosed herein (as described in Example 1).
Cells were seeded in an 8-well Lab Tek Chamber coverglass, as previously described in Example 1. Cells were washed trice with OPTI-MEM® (room temperature) and incubated with 4% PFA solution in PBS (Phosphate Buffered Saline) for 30 minutes at room temperature. […]
To study the changes between the different samples, a background subtraction was applied and the signal was collected in the range of 0-4000 cm^−1 in different cellular structures, cytoplasm and nucleus, allowing to observe the variations of specific vibrations arising from the nucleic acids and proteins, in particular, the CH vibrational bands at 2800-3300 cm^−1 that reflect a distribution of proteins, lipids and carbohydrates in cells and often used to localize cellular organelles, as well as OH band in the range of 3100-3650 cm^−1. […] However, a more detailed analysis of Raman signal is required to fully quantify and identify corresponding peaks in order to completely understand changes in the biomolecular profile observed for the fixation with Yb^3+[Zn(II)MCpyzHA].

[2] = Photophysical properties of the metallacrowns in solid state and in aqueous solutions; type: physicochemical
Method: FIG. 4. illustrates the normalized excitation (λem(Nd^3+)=1070 nm, λem(Yb^3+)=980 nm) and emission (λex=370 nm) spectra of Yb^3+[Zn(II)MCpyzHA], at the top, and Nd^3+[Zn(II)MCpyzHA] MCs, at the bottom, (solid or 200 μM solutions, room temperature).

[3] = as above; type: physicochemical; remark: listed apart in the source
HeLa cells [4] = test: Cytotoxicity test with Alamar blue; type: cell-based, Human; settings: FIG. 6, text says 5 hours, figure legend 24 and 48 hours
Method: In order to determine if the LnZn16(pyz)16MC complexes (Ln^3+Zn(II)MCHAD are toxic for live cells, cytotoxicity tests with Alamar blue were performed.
Alamar blue is viability reagent which functions as a cell health indicator by using the reducing power of living cells to quantitatively measure the proliferation of different human and animal cell lines. This enables the cytotoxicity of different chemical complexes to be determined. The active ingredient of Alamar Blue is resazurin, which is non-toxic and cell permeable compound, and upon entering in the cells, it is reduced to highly fluorescent resorufin.
The cytotoxicity tests were performed with Alamar blue assay (Invitrogen, France). HeLa cells were seeded in 96-well plate at the density of 1*10^4 cells per well and cultured at 37° C. in 5% humidified CO2 atmosphere. After 24 hours of attachment, the cells were incubated with different concentrations of Yb^3+[Zn(II)MCpyzHA] in cell culture medium for 24 and 48 hours followed by incubation with Alamar blue (10% v/v) for 3 to 4 hours at 37° C. in 5% humidified CO2 atmosphere.
Fluorescence of Alamar blue was measured with plate reader (Victor 3V, Perkin Elmer, France), with excitation at 530 nm and emission at 590 nm, for cells incubated with Yb^3+[Zn(II)MCpyzHA] and for untreated cells (control).

HeLa cells [5] = test: NIR epifluorescence microscopy of HeLa cells (necrotic cell labelling, simultaneous staining and fixing); type: cell-based, Human; settings: 150 μM complex and 3 μM propidium iodide together, UV light (377 nm) 5 minutes
Method: Cells were seeded in a 8-well Lab Tek Chamber coverglass (Nunc, Dutsher S.A., Brumath, France) at a density of 6×10^4 cells/well and cultured at 37° C. in 5% humidified CO2 atmosphere.
The continued incubation enabled the internalization of the complexes.
All of the previously mentioned incubated HeLa cells were then washed with fresh OPTI-MEM® media and were incubated with 3 μM propidium iodide for 5 minutes. Propidium iodide is a commercially available stain (emitting in the visible range) for necrotic cells, and was used to confirm cell necrosis.
i. 377 nm with 50 nm band-pass filter with 50 nm bandwidth for the excitation and 805 nm long-pass filter 805 nm or 996 nm band-pass filter with 70 nm bandwidth for YbIII emission in the NIR range.
ii. […] for the excitation and 805 nm long-pass filter 805 nm or 996 nm band-pass filter with 70 nm bandwidth for YbIII emission in the NIR range. […]

Q (quantum yield), D2O ([2]; 200 μM in D2O, room temperature, excitation at 370 nm): 0.257(3) %
Q (quantum yield), H2O ([2]; 200 μM in H2O, room temperature, excitation at 370 nm): 1.12(7) · 10^−2%
Excitation wavelength limit ([2]; FIG. 4 (Top), excitation spectrum): up to 480 nm
Q (quantum yield), Solid ([2]; solid state, room temperature, excitation at 370 nm): 0.659(4) %
τ (luminescence lifetime), D2O ([3]; 200 μM in D2O, room temperature, excitation at 355 nm): 81.3(1) μs
τ (luminescence lifetime), H2O ([3]; 200 μM in H2O, room temperature, excitation at 355 nm): 5.57(1) μs
q (number of coordinated water molecules) ([3]; calculated from lifetimes, estimated error ±0.2): 0
τ (luminescence lifetime), Solid ([3]; solid state, room temperature, excitation at 355 nm): 45.6(3) μs
SMILES: O=C([N-][O-])c1cnccn1.O=C([N-][O-])c1cnccn1.O=C([N-][O-])c1cnccn1.O=C([N-][O-])c1cnccn1.O=C([N-][O-])c1cnccn1.O=C([N-][O-])c1cnccn1.O=C([N-][O-])c1cnccn1.O=C([N-][O-])c1cnccn1.O=C([N-][O-])c1cnccn1.O=C([N-][O-])c1cnccn1.O=C([N-][O-])c1cnccn1.O=C([N-][O-])c1cnccn1.O=C([N-][O-])c1cnccn1.O=C([N-][O-])c1cnccn1.O=C([N-][O-])c1cnccn1.O=C([N-][O-])c1cnccn1.O=S(=O)([O-])C(F)(F)F.O=S(=O)([O-])C(F)(F)F.O=S(=O)([O-])C(F)(F)F.[Yb+3].[Zn+2].[Zn+2].[Zn+2].[Zn+2].[Zn+2].[Zn+2].[Zn+2].[Zn+2].[Zn+2].[Zn+2].[Zn+2].[Zn+2].[Zn+2].[Zn+2].[Zn+2].[Zn+2].c1ccncc1.c1ccncc1.c1ccncc1.c1ccncc1.c1ccncc1.c1ccncc1.c1ccncc1.c1ccncc1 [Yb^3+[Zn(II)MCpyzHA]]
Biomolecular profile of fixed HeLa cells compared with PFA and methanol fixation (Raman) (HeLa cells [1]): very similar biomolecular profiles
Cells remained alive (HeLa cells [4]; 45 μM): approximately 70%
Concentration from which the complex started to be significantly toxic (HeLa cells [4]): ≥ 45 µM
Incubation time after which emission was observed in cells after UV illumination (HeLa cells [5]): 20 min

Reference: US10359430B2, “Selective near-infrared optical imaging of necrotic cells and simultaneous cell fixing and counter staining with metallacrown complexes” (THE REGENTS OF THE UNIVERSITY OF MICHIGAN, priority 2015, dated 2019)
